Source: patent publication US20260308159A1, “BICYCLIC HETEROARYLAMIDES HAVING GPR68 MODULATING ACTIVITY” (RECURSION PHARMACEUTICALS, INC., priority 2023, published 2026)

The molecules below were run against T1, human GPR68 (Homo sapiens, UniProt Q15743) (assay: GPR68 Biochemical Assay (Promega GloSensor cAMP assay, GPR68 antagonism)). Conditions: HEK293T cells transiently expressing hGPR68, antagonism of pH 5.5 stimulated cAMP, 15 min, read-out: hGPR68 IC50.
T1 construct: encoding full-length human GPR68 (uniprot ID: Q15743); expressed in transfected cells; host or cells: HEK293T
Format: cell-based
Summary of the method: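 Readout is GloSensor cAMP luminescence after 15 min at room temperature, normalised between pH 5.5 stimulation and pH 8.0 minimum controls; IC50 fitted sigmoidally. Test compounds, up to 50 μM final (9-point half-log, 0.5% DMSO), were co-added with pH 5.5 buffer to HEK293T cells transiently expressing full-length human GPR68 plus GloSensor.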

T1 sequence (Q15743 whole entry): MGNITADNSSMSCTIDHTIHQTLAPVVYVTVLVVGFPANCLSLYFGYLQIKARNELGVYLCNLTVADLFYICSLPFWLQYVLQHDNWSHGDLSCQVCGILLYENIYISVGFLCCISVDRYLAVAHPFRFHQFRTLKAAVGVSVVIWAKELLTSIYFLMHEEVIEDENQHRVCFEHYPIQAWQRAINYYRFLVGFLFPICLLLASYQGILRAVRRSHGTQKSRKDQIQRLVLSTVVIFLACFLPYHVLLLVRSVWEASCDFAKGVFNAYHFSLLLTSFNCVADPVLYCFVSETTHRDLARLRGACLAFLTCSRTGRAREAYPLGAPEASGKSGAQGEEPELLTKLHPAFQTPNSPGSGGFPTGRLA

IC50 [nM] | Compound
50 to 500 | COCc1nn2c(C(=O)NC3CCC(F)(F)CC3F)ccnc2c1C(N)=O (mixture of isomers) [Compound 154, 2-(methoxymethyl)-N7-(2,4,4-trifluorocyclohexyl)pyrazolo[1,5-a]pyrimidine-3,7-dicarboxamide]
500 to 5000 | COCc1nn2c(C(=O)NC(c3ccc(F)cc3)C(F)(F)F)ccnc2c1C(N)=O (stereo not drawn) [Compound 125, 2-(methoxymethyl)-N7-[2,2,2-trifluoro-1-(4-fluorophenyl)ethyl]pyrazolo[1,5-a]pyrimidine-3,7-dicarboxamide]
500 to 5000 | Cc1nn2c(C(=O)NC3Cc4cccnc4C3)ccnc2c1C(N)=O (stereo not drawn) [Compound 49, N7-(6,7-dihydro-5H-cyclopenta[b]pyridin-6-yl)-2-methyl-pyrazolo[1,5-a]pyrimidine-3,7-dicarboxamide]
500 to 5000 | Cc1nn2c(C(=O)NC3CC(F)(F)C3)c(-c3cn[nH]c3)cnc2c1C(N)=O [Compound 32, N7-(3,3-difluorocyclobutyl)-2-methyl-6-(1H-pyrazol-4-yl)pyrazolo[1,5-a]pyrimidine-3,7-dicarboxamide]
50000 to 100000 | NC(=O)c1cnn2c(C(=O)NC3CCc4ccncc4C3)ccnc12 (stereo not drawn) [Compound 13, N7-(5,6,7,8-tetrahydroisoquinolin-7-yl)pyrazolo[1,5-a]pyrimidine-3,7-dicarboxamide]
< 50 | NC(=O)c1c(C2CC2)nn2c(C(=O)NC3Cc4cscc4C3)ccnc12 [Compound 134, 2-cyclopropyl-N7-(5,6-dihydro-4H-cyclopenta[c]thiophen-5-yl)pyrazolo[1,5-a]pyrimidine-3,7-dicarboxamide]
50 to 500 | COCc1nn2c(C(=O)N[C@H]3C[C@H](OC(F)(F)F)C3)ccnc2c1C(N)=O [Compound 224, 2-(methoxymethyl)-N7-[trans-3-(trifluoromethoxy)cyclobutyl]pyrazolo[1,5-a]pyrimidine-3,7-dicarboxamide]
< 50 | COCc1nn2c(C(=O)N[C@H]3CCc4ccccc4C3)ccnc2c1C(N)=O [Compound 79, 2-(methoxymethyl)-N7-[(2S)-tetralin-2-yl]pyrazolo[1,5-a]pyrimidine-3,7-dicarboxamide]
< 50 | COCc1nn2c(C(=O)N[C@@H]3COc4cc(F)ccc43)ccnc2c1C(N)=O [Compound 167, N7-[(3S)-6-fluoro-2,3-dihydrobenzofuran-3-yl]-2-(methoxymethyl)pyrazolo[1,5-a]pyrimidine-3,7-dicarboxamide]
< 50 | NC(=O)c1c(COCF)nn2c(C(=O)N[C@H]3C[C@@H](OC(F)(F)F)C3)ccnc12 [Compound 158, 2-(fluoromethoxymethyl)-N7-[cis-3-(trifluoromethoxy)cyclobutyl]pyrazolo[1,5-a]pyrimidine-3,7-dicarboxamide]
50000 to 100000 | CN(C)CCNc1nn2c(C(=O)NC3Cc4ccccc4C3)ccnc2c1C(N)=O [Compound 23, 2-[2-(dimethylamino)ethylamino]-N7-indan-2-yl-pyrazolo[1,5-a]pyrimidine-3,7-dicarboxamide]
50 to 500 | COCc1nn2c(C(=O)N[C@H]3C[C@@H](OC(F)(F)F)C3)cc(C)nc2c1C(N)=O [Compound 206, 2-(methoxymethyl)-5-methyl-N7-[cis-3-(trifluoromethoxy)cyclobutyl]pyrazolo[1,5-a]pyrimidine-3,7-dicarboxamide]
50 to 500 | COCc1nn2c(C(=O)NC(C)c3ccc(F)cc3)ccnc2c1C(N)=O (stereo not drawn) [Compound 122, N7-[1-(4-fluorophenyl)ethyl]-2-(methoxymethyl)pyrazolo[1,5-a]pyrimidine-3,7-dicarboxamide]
500 to 5000 | COCc1nn2c(C(=O)NC3CCc4nccn4C3)ccnc2c1C(N)=O (stereo not drawn) [Compound 187, 2-(methoxymethyl)-N7-(5,6,7,8-tetrahydroimidazo[1,2-a]pyridin-6-yl)pyrazolo[1,5-a]pyrimidine-3,7-dicarboxamide]
50 to 500 | CCOCc1nn2c(C(=O)N[C@H]3C[C@@H](OC(F)(F)F)C3)ccnc2c1C(N)=O [Compound 205, 2-(ethoxymethyl)-N7-[cis-3-(trifluoromethoxy)cyclobutyl]pyrazolo[1,5-a]pyrimidine-3,7-dicarboxamide]
< 50 | CC(C)c1nn2c(C(=O)NC3CS(=O)(=O)c4ccccc43)ccnc2c1C(N)=O (stereo not drawn) [Compound 228, N7-(1,1-dioxo-2,3-dihydrobenzothiophen-3-yl)-2-isopropyl-pyrazolo[1,5-a]pyrimidine-3,7-dicarboxamide]
500 to 5000 | NC(=O)c1cnn2c(C(=O)NC3CC(F)(F)C3)ccnc12 [Compound 102, N7-(3,3-difluorocyclobutyl)pyrazolo[1,5-a]pyrimidine-3,7-dicarboxamide]
< 50 | COCc1nn2c(C(=O)Nc3cc4ccccc4n3C)ccnc2c1C(N)=O [Compound 118, 2-(methoxymethyl)-N7-(1-methylindol-2-yl)pyrazolo[1,5-a]pyrimidine-3,7-dicarboxamide]
5000 to 50000 | Cc1nn2c(C(=O)NC3Cc4ccncc4C3)ccnc2c1C(N)=O (stereo not drawn) [Compound 52, N7-(6,7-dihydro-5H-cyclopenta[c]pyridin-6-yl)-2-methyl-pyrazolo[1,5-a]pyrimidine-3,7-dicarboxamide]
< 50 | COCc1nn2c(C(=O)NC3COc4ccc(Cl)cc4C3)ccnc2c1C(N)=O (stereo not drawn) [Compound 114, N7-(6-chlorochroman-3-yl)-2-(methoxymethyl)pyrazolo[1,5-a]pyrimidine-3,7-dicarboxamide]
50 to 500 | Cc1cc(C(=O)NC2CC(F)(F)C2)n2nc(C)c(C(N)=O)c2n1 [Compound 42, N7-(3,3-difluorocyclobutyl)-2,5-dimethyl-pyrazolo[1,5-a]pyrimidine-3,7-dicarboxamide]
500 to 5000 | COCc1nn2c(C(=O)NC3(C)CC4(CC(F)(F)C4)C3)ccnc2c1C(N)=O [Compound 124, N7-(2,2-difluoro-6-methyl-spiro[3.3]heptan-6-yl)-2-(methoxymethyl)pyrazolo[1,5-a]pyrimidine-3,7-dicarboxamide]
50 to 500 | COCc1nn2c(C(=O)N[C@H]3CCOc4ccccc43)ccnc2c1C(N)=O [Compound 172, N7-[(4S)-chroman-4-yl]-2-(methoxymethyl)pyrazolo[1,5-a]pyrimidine-3,7-dicarboxamide]
50 to 500 | COCc1nn2c(C(=O)NC3CCc4ncsc4C3)ccnc2c1C(N)=O (stereo not drawn) [Compound 190, 2-(methoxymethyl)-N7-(4,5,6,7-tetrahydro-1,3-benzothiazol-6-yl)pyrazolo[1,5-a]pyrimidine-3,7-dicarboxamide]
< 50 | COCc1nn2c(C(=O)NC3CCS(=O)(=O)c4ccccc43)ccnc2c1C(N)=O (stereo not drawn) [Compound 189, N7-(1,1-dioxo-3,4-dihydro-2H-thiochromen-4-yl)-2-(methoxymethyl)pyrazolo[1,5-a]pyrimidine-3,7-dicarboxamide]
50 to 500 | COCc1nn2c(C(=O)NC3Cc4nccn4C3)ccnc2c1C(N)=O (stereo not drawn) [Compound 165, N7-(6,7-dihydro-5H-pyrrolo[1,2-a]imidazol-6-yl)-2-(methoxymethyl)pyrazolo[1,5-a]pyrimidine-3,7-dicarboxamide]

Same assay, conditions: hGPR68 IC50, HEK293T cells transiently expressing hGPR68, antagonism of pH 5.5 stimulated cAMP, 15 min

IC50 [nM] | Compound
500 to 5000 | COCc1cc(C(=O)NC2CC(F)(F)C2)n2nc(C)c(C(N)=O)c2n1 [Compound 39, N7-(3,3-difluorocyclobutyl)-5-(methoxymethyl)-2-methyl-pyrazolo[1,5-a]pyrimidine-3,7-dicarboxamide]
